The CheMixHub viscosity set
Where “and” joins values, the source holds several entries; their conditions need not be identical. Equal entries are not always repeated.

Experiment: xn = mol fraction of the nth substance listed

C[C@H](N)C(=O)O + O
Details | viscosity
298 K, 101 kPa, x1 = 0.0004 | 0.887 mPa·s
298 K, 101 kPa, x1 = 0.0007 | 0.8925 mPa·s
298 K, 101 kPa, x1 = 0.001 | 0.8956 mPa·s
298 K, 101 kPa, x1 = 0.0018 | 0.9013 mPa·s
298.15 K, 100 kPa, x1 = 0.0004 | 0.8955 mPa·s
298.15 K, 100 kPa, x1 = 0.0007 | 0.8979 mPa·s
298.15 K, 100 kPa, x1 = 0.001 | 0.9003 mPa·s and 0.9029 mPa·s
298.15 K, 101 kPa, x1 = 0.000169 | 0.9489 mPa·s and 0.9489 mPa·s
298.15 K, 101 kPa, x1 = 0.00045 | 0.8958 mPa·s
298.15 K, 101 kPa, x1 = 0.0009 | 0.9013 mPa·s
298.15 K, 101 kPa, x1 = 0.00135 | 0.9069 mPa·s
298.15 K, 101 kPa, x1 = 0.00178 | 0.9677 mPa·s and 0.9677 mPa·s
298.15 K, 101 kPa, x1 = 0.0018 | 0.9126 mPa·s
298.15 K, 101 kPa, x1 = 0.002695 | 0.9242 mPa·s
298.15 K, 101 kPa, x1 = 0.003596 | 0.9759 mPa·s and 0.9759 mPa·s
298.15 K, 101 kPa, x1 = 0.005338 | 0.9871 mPa·s and 0.9871 mPa·s
298.15 K, 101 kPa, x1 = 0.01087 | 1.039 mPa·s and 1.039 mPa·s
298.15 K, 101 kPa, x1 = 0.0124 | 1.045 mPa·s and 1.045 mPa·s
298.15 K, 101 kPa, x1 = 0.01417 | 1.054 mPa·s and 1.054 mPa·s
303.15 K, 101 kPa, x1 = 0.00045 | 0.8023 mPa·s
303.15 K, 101 kPa, x1 = 0.0009 | 0.8076 mPa·s
303.15 K, 101 kPa, x1 = 0.00135 | 0.8128 mPa·s
303.15 K, 101 kPa, x1 = 0.0018 | 0.8182 mPa·s
303.15 K, 101 kPa, x1 = 0.001802 | 0.8176 mPa·s
303.15 K, 101 kPa, x1 = 0.002245 | 0.8235 mPa·s
303.15 K, 101 kPa, x1 = 0.002695 | 0.829 mPa·s
303.15 K, 101 kPa, x1 = 0.01069 | 0.9202 mPa·s
303.15 K, 101 kPa, x1 = 0.01245 | 0.9412 mPa·s
308.15 K, 101 kPa, x1 = 0.000169 | 0.7568 mPa·s and 0.7568 mPa·s
308.15 K, 101 kPa, x1 = 0.00045 | 0.7238 mPa·s
308.15 K, 101 kPa, x1 = 0.000844 | 0.7678 mPa·s and 0.7678 mPa·s
308.15 K, 101 kPa, x1 = 0.0009 | 0.7288 mPa·s
308.15 K, 101 kPa, x1 = 0.00135 | 0.7338 mPa·s
308.15 K, 101 kPa, x1 = 0.00178 | 0.7755 mPa·s and 0.7755 mPa·s
308.15 K, 101 kPa, x1 = 0.002245 | 0.7439 mPa·s
308.15 K, 101 kPa, x1 = 0.002695 | 0.749 mPa·s
308.15 K, 101 kPa, x1 = 0.003596 | 0.799 mPa·s and 0.799 mPa·s
308.15 K, 101 kPa, x1 = 0.005338 | 0.8044 mPa·s and 0.8044 mPa·s
308.15 K, 101 kPa, x1 = 0.007149 | 0.8133 mPa·s and 0.8133 mPa·s
308.15 K, 101 kPa, x1 = 0.008823 | 0.8201 mPa·s and 0.8201 mPa·s
308.15 K, 101 kPa, x1 = 0.01087 | 0.8366 mPa·s and 0.8366 mPa·s
308.15 K, 101 kPa, x1 = 0.0124 | 0.8431 mPa·s and 0.8431 mPa·s
308.15 K, 101 kPa, x1 = 0.01417 | 0.8612 mPa·s and 0.8612 mPa·s
313.15 K, 101 kPa, x1 = 0.00045 | 0.6571 mPa·s
313.15 K, 101 kPa, x1 = 0.0009 | 0.6618 mPa·s
313.15 K, 101 kPa, x1 = 0.00135 | 0.6666 mPa·s
313.15 K, 101 kPa, x1 = 0.0018 | 0.6714 mPa·s
313.15 K, 101 kPa, x1 = 0.002245 | 0.6761 mPa·s
313.15 K, 101 kPa, x1 = 0.002695 | 0.6809 mPa·s
313.15 K, 101 kPa, x1 = 0.005374 | 0.6994 mPa·s
313.15 K, 101 kPa, x1 = 0.008931 | 0.7316 mPa·s
313.15 K, 101 kPa, x1 = 0.01245 | 0.7659 mPa·s
318.15 K, 101 kPa, x1 = 0.000169 | 0.6345 mPa·s
318.15 K, 101 kPa, x1 = 0.00045 | 0.6014 mPa·s
318.15 K, 101 kPa, x1 = 0.000844 | 0.6454 mPa·s and 0.6454 mPa·s
318.15 K, 101 kPa, x1 = 0.0009 | 0.6059 mPa·s
318.15 K, 101 kPa, x1 = 0.00135 | 0.6104 mPa·s
318.15 K, 101 kPa, x1 = 0.00178 | 0.6589 mPa·s and 0.6589 mPa·s
318.15 K, 101 kPa, x1 = 0.0018 | 0.6149 mPa·s
318.15 K, 101 kPa, x1 = 0.002245 | 0.6195 mPa·s
318.15 K, 101 kPa, x1 = 0.002695 | 0.624 mPa·s
318.15 K, 101 kPa, x1 = 0.003596 | 0.6733 mPa·s and 0.6733 mPa·s
318.15 K, 101 kPa, x1 = 0.005338 | 0.6747 mPa·s and 0.6747 mPa·s
318.15 K, 101 kPa, x1 = 0.007149 | 0.6774 mPa·s and 0.6774 mPa·s
318.15 K, 101 kPa, x1 = 0.008823 | 0.699 mPa·s and 0.699 mPa·s
318.15 K, 101 kPa, x1 = 0.01087 | 0.7009 mPa·s and 0.7009 mPa·s
318.15 K, 101 kPa, x1 = 0.0124 | 0.7145 mPa·s and 0.7145 mPa·s
318.15 K, 101 kPa, x1 = 0.01417 | 0.7345 mPa·s and 0.7345 mPa·s
323.15 K, 101 kPa, x1 = 0.005374 | 0.5833 mPa·s
323.15 K, 101 kPa, x1 = 0.008931 | 0.6095 mPa·s
323.15 K, 101 kPa, x1 = 0.01069 | 0.6229 mPa·s
323.15 K, 101 kPa, x1 = 0.01245 | 0.6364 mPa·s
